The target of one assay is T1, 5-lipoxygenase (Rattus norvegicus, UniProt P12527).
T1 construct: host or cells: RBL-1
T1 sequence (P12527 1-673): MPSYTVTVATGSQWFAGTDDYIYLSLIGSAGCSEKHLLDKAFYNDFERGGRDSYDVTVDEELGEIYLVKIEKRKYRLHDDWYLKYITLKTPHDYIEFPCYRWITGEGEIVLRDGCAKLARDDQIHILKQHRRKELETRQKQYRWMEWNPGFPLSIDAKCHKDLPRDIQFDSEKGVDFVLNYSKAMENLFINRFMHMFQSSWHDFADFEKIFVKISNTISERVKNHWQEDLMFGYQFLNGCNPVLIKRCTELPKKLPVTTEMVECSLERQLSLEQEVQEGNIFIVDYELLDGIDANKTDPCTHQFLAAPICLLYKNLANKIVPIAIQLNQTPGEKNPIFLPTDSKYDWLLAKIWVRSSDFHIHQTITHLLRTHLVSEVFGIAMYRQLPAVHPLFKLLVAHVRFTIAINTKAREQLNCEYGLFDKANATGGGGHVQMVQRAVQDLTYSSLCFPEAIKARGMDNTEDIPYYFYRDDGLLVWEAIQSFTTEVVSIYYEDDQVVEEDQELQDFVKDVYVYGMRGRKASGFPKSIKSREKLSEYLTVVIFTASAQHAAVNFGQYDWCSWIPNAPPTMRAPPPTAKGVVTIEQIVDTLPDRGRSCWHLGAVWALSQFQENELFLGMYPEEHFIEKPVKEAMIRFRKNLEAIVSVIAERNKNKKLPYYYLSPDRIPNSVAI
In words: ARBL whole cell 5-lipoxygenase assay (LTB4 formation in RBL-1 cells, A23187-stimulated). The format is cell-based. The following applies: RBL-1 whole cells; for IC50: inhibition of LTB4 formation. Here is the method:
(§1) ARBL/ARBC Whole cell 5-lipoxygenase and Cyclooxygenase Aasays
(§2) The rat basophilic leukemia cell line (RBL-1) was obtained from the American Type Culture Collection (Rockville, Md.).
(§3) Radioimmunoassay (RIA) kits of LTB4 and PGF2α were obtained from Amersham (Arlington Heights, Ill.) and Seragen (Boston, Mass.), respectively.
(§4) RBL-1 cells are grown in suspension culture in Eagle's minimum essential medium supplemented with 12% fetal bovine serum at 37° C. in an incubator supplied with air-5% carbon dioxide. Cells are harvested by centrifugation. They are washed with cold phosphate buffered saline pH 7.4 (PBS; NaCl, 7.1 g; Na2 HPO4, 1.15 g; KH2 PO4, 0.2 g; and KCl, 0.2 g/L). Cells are finally suspended in PBS containing 1.0 mM calcium at a density of 2×10^6 cells/mL. Cells are incubated with and without test agent (in DMSO) (1% DMSO is without effect on arachidonic acid metabolism) for 10 minutes at room temperature. Calcium ionophore A23187 (5 μM) is added and cells are incubated for 7 minutes at 37° C. The reaction is stopped by chilling the tubes on ice for 10 minutes. Cells are separated by centrifugation and the supernatant is stored at -20° C. Aliquots (100 μL) are analyzed for LTB4 and PGF2α using radioimmunoassay kits as provided by the supplier.
(§5) Table 1 contains biochemical data obtained from this whole cell assay as IC5 s which are calculated as the amount of test compound causing 50% inhibition of LTB4 or PGF2α formation and the results of the CFE-2 assay.

For another assay, the target named is T2, Cyclooxygenase (Rattus norvegicus, UniProt Q63921).
T2 construct: host or cells: RBL-1
T2 sequence (Q63921 27-602): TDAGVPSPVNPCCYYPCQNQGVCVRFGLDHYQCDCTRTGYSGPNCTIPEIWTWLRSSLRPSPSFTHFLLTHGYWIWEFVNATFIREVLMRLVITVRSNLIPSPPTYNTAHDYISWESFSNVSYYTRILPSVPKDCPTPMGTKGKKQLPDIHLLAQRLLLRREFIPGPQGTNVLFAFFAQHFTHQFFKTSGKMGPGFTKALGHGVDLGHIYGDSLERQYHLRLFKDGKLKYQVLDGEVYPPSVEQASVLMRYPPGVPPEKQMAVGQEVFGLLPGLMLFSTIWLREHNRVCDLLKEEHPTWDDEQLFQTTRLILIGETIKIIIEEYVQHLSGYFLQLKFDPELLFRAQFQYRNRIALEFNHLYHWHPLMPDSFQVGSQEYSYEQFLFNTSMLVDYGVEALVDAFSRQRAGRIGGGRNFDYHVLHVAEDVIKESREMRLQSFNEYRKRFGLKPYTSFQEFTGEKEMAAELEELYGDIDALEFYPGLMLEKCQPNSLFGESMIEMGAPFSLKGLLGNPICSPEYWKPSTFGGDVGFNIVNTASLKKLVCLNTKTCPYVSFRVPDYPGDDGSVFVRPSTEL
In words: ARBC whole cell cyclooxygenase assay (PGF2α formation in RBL-1 cells, A23187-stimulated). The following applies: RBL-1 whole cells; for IC50: inhibition of PGF2α formation; for inhibition at 10 µM: read-out: ARBC % inhibition of PGF2α at 10 μM (class symbol). The format is cell-based. The procedure: as §1, §2, §3, §4, §5

A short description of assay [1]: Carrageenan-Induced Rat Foot Paw Edema-2 (CFE-2) Assay. The assay is classed as in vivo. The following applies: dosed 1 hour before carrageenan, edema measured 5 hours after carrageenan. The procedure:
Carrageenan-Induced Rat Foot Paw Edema-2 (CFE-2) Assay:Protocol
Carrageenan solution (1% w/v) is prepared by dissolving 100 mg carrageenan (Marine Colloidal Div., Springfield, N.J.) in 10 mL of sterile saline (0.9%) solution (Travenol). The solution is vortexed for 30 to 45 minutes. Animals are dosed with compound 1 hour before carrageenan challenge. Foot paw edema is induced by injecting 0.10 mL of the 1% carrageenan subcutaneously into the plantar portion of the right hind paw of each rat under light anesthesia. Initial foot paw volume is measured immediately following carrageenan challenge using mercury plethysmography (Buxco Electronics). Edema is measured 5 hours after carrageenan. The difference between the 5-hour and the initial paw volume is expressed as delta edema. The delta edema for each test group of animals is used to calculate the percent inhibition of edema achieved by the compound at the test dose compared with the vehicle control group. The ID40 (the dose at which swelling is inhibited by 40%) is calculated by probit analysis for the dose at which 40% inhibition occurs.
as §5
(Carrageenan injected into the paw causes an acute inflammation.)

Molecules are shown by their SMILES. Where two headings read alike, the source gives them in different places. Bounds are passed on as bounds.

For the compound `Cc1ccc(Cl)c(Nc2ccccc2-c2noc(=O)[nH]2)c1Cl` [Example 1, 3-[2-[(2,6-dichloro-3-methylphenyl)amino]phenyl]-1,2,4-oxadiazol-5(4H)-one], the IC50 against 5-lipoxygenase is 2300 nM; at Cyclooxygenase it was 13 nM. In addition, the “CFE Percent inhibition at 30 mg/kg” value in assay [1] is given as 58%.
`Cc1ccc(S(=O)(=O)c2nc(-c3ccccc3Nc3c(Cl)ccc(C)c3Cl)ns2)cc1` [Example 2, 2,6-Dichloro-3-methyl-N-[2-[5-[(4-methylphenyl)-sulfonyl]-1,2,4-thiadiazol-3-yl]phenyl]benzenamine]: the inhibition at 10 µM at 5-lipoxygenase (read-out: ARBL % inhibition of LTB4 at 10 μM (class symbol)) and on Cyclooxygenase was under 40% throughout.
In the case of `Cc1ccc(Cl)c(Nc2ccccc2-c2nsc(N=C(N)N)n2)c1Cl` [Example 3, 3-[2-[(2,6-dichloro-3-methylphenyl)amino]phenyl]-1,2,4-thiadiazol-5-yl-guanidine], the inhibition at 10 µM at 5-lipoxygenase (read-out: ARBL % inhibition of LTB4 at 10 μM) is 100%; on Cyclooxygenase, under 40%.
Turning to `Cc1ccc(Cl)c(Nc2ccccc2-c2nsc(NC#N)n2)c1Cl` [Example 4, 3-[2-[(2,6-Dichloro-3-methylphenyl)amino]phenyl]-1,2,4-thiadiazol-5-yl-cyanamide], the IC50 was determined as 6150 nM against 5-lipoxygenase and 1230 nM on Cyclooxygenase.

Usually IC50 stands for the midpoint of a concentration-inhibition curve. By inhibition is commonly meant how much of the control response was suppressed.

For the origin of these results see patent US5114958A, “1,2,4-oxadiazole and 1,2,4-thiadiazole derivatives of fenamates as antiinflammatory agents” (Warner-Lambert Company, priority 1991, dated 1992).
